From patent US20090030066A1, “SMALL MOLECULES FOR THE PROTECTION OF PANCREATIC CELLS” (priority 2007, published 2009)

Key:
L-arginine-treated rats = experiment: L-arginine-treated rat model of necrotic pancreatitis; format: in vivo
Text: L-arginine-treated rats are frequently used experimental tools to model necrotic pancreatitis [Krajewski, E., Krajewski, J., Spodnik, J. H., Figarski, A. and Kunasik-Juraniec, J. (2005) Changes in the morphology of the acinar cells of the rat pancreas in the oedematous and nectoric types of experimental acute pancreatitis. Folia Morphol. 64, 292-303]. L-arginine is a precursor of NO which primarily destroys the exocrine pancreas with subsequent damage of insulin producing islet cells. Just like pancreatitis is often associated with elevated blood glucose level in human patients, extensive damage of pancreas in the L-arginine-treated animal model also results in damaged function of β-cells as indicated by higher blood glucose levels. In this example, the L-arginine-treated rat model was employed to see if CCompound1 could also prevent or reduce deterioration of β-cell function and the damage of the exocrine pancreas.
Male Wistar rats weighing 220-250 g were divided into four groups, each group consisting of 6 animals. To ensure standard conditions animals were starved for 16 hours before the start of the experiment. CCompound1 was first injected 24 hours prior to L-arginine injection, followed by similar daily injections for 5 consecutive days. In the first group, rats remained untreated. On day 0, animals in groups 2-4 were injected 2×2.5 g/kg L-arginine i.p. at one hour intervals. Animals in group 4 also received daily s.c. injection of 4.5 mg/kg of CCompound1 between days −1 and 5. To verify development of acute pancreatitis, 24 hours after L-arginine injections rats in group 2 were anesthetized with 45 mg/kg pentobarbital i.p. and exsanguinated through the abdominal aorta. On day 0, 2, 4 and 6 blood sugar values of the experimental animals were measured after fasting for 8 hours with the C-test; blood samples were taken from the tail. Edema of the pancreatic tissue was assessed by the pancreatic weight/body weight ratio. The animals in the remaining groups were sacrificed on day 7.
For histological examinations, a portion of the head of the pancreas was fixed in 4% neutral formaldehyde solution and embedded in paraffin. Tissue slices were stained with hematoxylin and eosin and examined by light microscopy. Slices were coded and examined blind by a pathologist for the grading of histological alterations. The extent and intensity of pancreatic edema, leukocyte infiltration, acinar vacuolization, hyperemia and tubular transformation were described with scores ranging from 0 to 3. The total histological damage was calculated by adding the scores for the various below listed parameters together.
Hyperemia; defined as the amount of red blood cells in the vessels.
Edema; defined as the widening of interstitial space.
Vacuolization; defined as the formation of vacuoles in the cytoplasm of acinar cells. Vacuolization results from the fusion of zymogene granules and lysosomes.
Inflammation; defined and quantified by the infiltration of the tissue with mononuclear inflammatory cells (lymphocytes, plasma cells, and mast cells).
Necrosis; defined as the measure of the extent of the destruction of normal pancreatic tissue structure.
Tubular transformation; defined as desquamation of acinar cell apical cytoplasm and release of cytoplasm segments into the acinar lumen leading to formation of duct-like tubular complexes. (Elsässer H. P., Adler G and Kern H. F. (1986) Time course and cellular source of pancreatic regeneration following acute pancreatitis in the rat. Pancreas 1 (5) 421-9).
Total histological damage (total damage); defined and calculated by combining the histological scores of the above mentioned parameters (except vacuolization). This value is the generally accepted best representation of the severity of pancreatitis in the art. […]

STZ-treated mice = experiment: Blood glucose and body weight in STZ-treated mice, first experiment (not fasted); format: in vivo; settings: for Body weight: in g
Procedure: Male C57BL/6 mice (12 weeks old) were housed in a specific pathogen-free facility with a 12-h light/dark cycle and given free access to food and water. Animals weighing between 28-31 g were selected for the experiments. In each group, at the start of experiment the body weight among individual animals differed by less than 1-g.
One group of mice received no treatment over the entire experiment. A second group received only 4.5 mg per kg of CCompound1 on days −2, −1, 0, +1, +2, +3, +4, +5, +6 and +7. A third/fourth/fifth/sixth group of animals were treated i.p. with 210 mg/kg of STZ on day 0. The fourth, fifth, and sixth group of animals also received 4.5 mg per kg each of CCompound1 (CC1; 4th group) or CCompound3 (CC3; 5th group), or CCompound19 (CC19; 6th group) on days −2, −1, 0, +1, +2, +3, +4, +5, +6 and +7 (with STZ treatment given on day 0). Each group consisted of 7 animals. Body weight was measured regularly.
CC compounds were dissolved in physiological saline while STZ was dissolved in 100 mM sodium citrate (pH 4.5). All compounds were injected intraperitoneally in 0.5 ml volume. Control animals were injected physiological saline (0.5 ml) on the same days when other groups were treated with CC compounds.
Blood samples were taken from the eye (canthus) of the animals on days −1, 0, +1, +2, +3, +7 and +10, and glucose concentrations in whole blood samples were immediately measured with the commercially available fast Glucose C test. The animals were not fasted prior to taking the blood samples. The results are expressed as the mean values from 7 animals ±std. dev. (S.D.).

[1] = L-arginine + compound, pancreas, day 7

## Cc1c(OCC(O)C[N+](C)(C)C)cc2c(=O)c3ccccc3sc2c1C.[Cl-] (stereo not drawn) [CCcompound1, [3-(3,4-Dimethyl-9-oxo-9H-thioxanthen-2-yloxy)-2-hydroxypropyl]trimethyl-ammonium chloride]
L-arginine-treated rats; 4.5 mg/kg s.c. daily
  effect on L-arginine-stimulated blood glucose: reduced L-arginine-stimulated blood glucose to control level
L-arginine-treated rats; L-arginine 2×2.5 g/kg i.p. day 0 + compound 4.5 mg/kg s.c. daily days −1 to 5, fasted 8 h, day 0
  Blood glucose: 6.28 ± 0.31 mM
L-arginine-treated rats; L-arginine + compound
  effect on tissue necrosis: significant reduction in tissue necrosis
L-arginine-treated rats; L-arginine + compound 4.5 mg/kg s.c. daily, fasted 8 h, day 2
  Blood glucose: 6.46 ± 0.33 mM
L-arginine-treated rats; L-arginine + compound 4.5 mg/kg s.c. daily, fasted 8 h, day 4
  Blood glucose: 6.26 ± 0.21 mM
L-arginine-treated rats; L-arginine + compound 4.5 mg/kg s.c. daily, fasted 8 h, day 6
  Blood glucose: 6.00 ± 0.49 mM
L-arginine-treated rats; L-arginine + compound, day 7, immunohistochemistry of pancreas
  insulin staining score (scale 0 to 3): 2.45±0.30
L-arginine-treated rats; [1]
  Edema histological score (0 to 3): 1.33 ± 0.21
  Hyperemia histological score (0 to 3): 1.17 ± 0.17
  Inflammation histological score (0 to 3): 2.00 ± 0.00
  Necrosis histological score (0 to 3): 1.25 ± 0.36
  Total damage (sum of histological scores except vacuolization): 7.75 ± 0.70
  Tubular transformation histological score (0 to 3): 2.00 ± 0.37
  Vacuolization histological score (0 to 3): 1.17 ± 0.17
L-arginine-treated rats; L-arginine-induced necrotic pancreatitis model
  protection of endocrine and exocrine pancreatic cells: partially or fully protected both the endocrine and exocrine pancreatic cells
STZ-treated mice; 4.5 mg/kg i.p., no STZ
  effect of compound alone on blood glucose level: no effect on blood glucose level
STZ-treated mice; STZ 210 mg/kg + compound 4.5 mg/kg i.p., day 0, unit not given
  Body weight: 28.2 ± 0.7
STZ-treated mice; STZ 210 mg/kg + compound 4.5 mg/kg i.p., day +1, unit not given
  Body weight: 28.0 ± 0.7
STZ-treated mice; STZ 210 mg/kg + compound 4.5 mg/kg i.p., day +2, unit not given
  Body weight: 26.9 ± 0.8
STZ-treated mice; STZ 210 mg/kg + compound 4.5 mg/kg i.p., day +3, unit not given
  Body weight: 26.9 ± 0.5
STZ-treated mice; STZ 210 mg/kg + compound 4.5 mg/kg i.p., day +7, unit not given
  Body weight: 27.1 ± 0.7
STZ-treated mice; STZ 210 mg/kg + compound 4.5 mg/kg i.p., day +10, unit not given
  Body weight: 27.2 ± 0.9
STZ-treated mice; STZ 210 mg/kg i.p. day 0 + compound 4.5 mg/kg i.p. days −2 to +7, day 0
  Blood glucose: 4.1 ± 0.4 mM
STZ-treated mice; STZ 210 mg/kg i.p. day 0 + compound 4.5 mg/kg i.p. days −2 to +7, day +1
  Blood glucose: 5.7 ± 0.5 mM
STZ-treated mice; STZ 210 mg/kg i.p. day 0 + compound 4.5 mg/kg i.p. days −2 to +7, day +2
  Blood glucose: 8.2 ± 1.4 mM
STZ-treated mice; STZ 210 mg/kg i.p. day 0 + compound 4.5 mg/kg i.p. days −2 to +7, day +3
  Blood glucose: 10.1 ± 1.5 mM
STZ-treated mice; STZ 210 mg/kg i.p. day 0 + compound 4.5 mg/kg i.p. days −2 to +7, day +7
  Blood glucose: 10.9 ± 1.2 mM
STZ-treated mice; STZ 210 mg/kg i.p. day 0 + compound 4.5 mg/kg i.p. days −2 to +7, day +10
  Blood glucose: 11.0 ± 0.8 mM
STZ-treated mice; STZ 210 mg/kg i.p. day 0 + compound 4.5 mg/kg i.p. days −2 to +7, day −1
  Blood glucose: 4.6 ± 0.7 mM
STZ-treated mice; STZ-induced type 1 diabetes model
  protection of islet β-cells: protected islet β-cells
STZ-treated mice; STZ-treated animals, 4.5 mg/kg i.p.
  effect on STZ-induced rise of blood glucose: prevent drastic increase in blood glucose level
STZ-treated mice; STZ-treated mice, to day 10
  effect on STZ-induced body weight loss: reduced the effect of STZ on body weight
STZ-treated mice; compound alone 4.5 mg/kg i.p. days −2 to +7, no STZ, day 0
  Blood glucose: 4.5 ± 0.4 mM
STZ-treated mice; compound alone 4.5 mg/kg i.p. days −2 to +7, no STZ, day +1
  Blood glucose: 4.7 ± 0.6 mM
STZ-treated mice; compound alone 4.5 mg/kg i.p. days −2 to +7, no STZ, day +2
  Blood glucose: 4.6 ± 0.4 mM
STZ-treated mice; compound alone 4.5 mg/kg i.p. days −2 to +7, no STZ, day +3
  Blood glucose: 4.7 ± 0.4 mM
STZ-treated mice; compound alone 4.5 mg/kg i.p. days −2 to +7, no STZ, day +7
  Blood glucose: 4.6 ± 0.4 mM
STZ-treated mice; compound alone 4.5 mg/kg i.p. days −2 to +7, no STZ, day +10
  Blood glucose: 4.3 ± 0.6 mM
STZ-treated mice; compound alone 4.5 mg/kg i.p. days −2 to +7, no STZ, day −1
  Blood glucose: 4.5 ± 0.4 mM
STZ-treated mice; compound alone 4.5 mg/kg i.p., no STZ, day 0, unit not printed in table (animals 28-31 g)
  Body weight: 28.2 ± 0.9
STZ-treated mice; compound alone 4.5 mg/kg i.p., no STZ, day +1, unit not given
  Body weight: 28.7 ± 0.4
STZ-treated mice; compound alone 4.5 mg/kg i.p., no STZ, day +2, unit not given
  Body weight: 28.1 ± 0.4
STZ-treated mice; compound alone 4.5 mg/kg i.p., no STZ, day +3, unit not given
  Body weight: 28.7 ± 0.7
STZ-treated mice; compound alone 4.5 mg/kg i.p., no STZ, day +7, unit not given
  Body weight: 29.5 ± 0.8
STZ-treated mice; compound alone 4.5 mg/kg i.p., no STZ, day +10, unit not given
  Body weight: 30.3 ± 1.4
